These results are taken from patent US20120202287A1, “Stem Cell Culture Methods” (priority 2009, published 2012).

The subject of this test is SA121 hESCs. The test can be described thus: General (monolayer) differentiation on matrigel in defined media, qRT-PCR of stem cell and differentiation markers after 14 days. The format is cell-based, human. More on the design: key to NO EHNA EFFECT: X: NO EHNA EFFECT; key to Full EHNA effect: those which maintained at least 50% of the level of NANOG-expression in comparison to EHNA and those that inhibited the expression of PAX6 to 50% or less than the value untreated controls were considered to have an EHNA-like effect. Particulars: for Full EHNA effect: NANOG at least 50% of EHNA level and PAX6 50% or less of untreated control; for NO EHNA EFFECT: neither NANOG nor PAX6 criterion met; for PARTIAL EHNA EFFECT (PAX6): only PAX6 50% or less of untreated control; for prevention of differentiation of hESCs: FIG. 10; for NANOG expression in differentiating conditions: relative to untreated control. The method, then: In order to ascertain the efficacy of the compounds of the present invention, each compound was tested to determine whether it can maintain the stem cell marker NANOG and/or block the differentiation marker PAX6 in the face of differentiating conditions in a manner similar to EHNA. Cells enzymatically passaged onto matrigel-coated dishes and grown for 2 weeks in defined media with or without (control) compound addition were analysed by qRT-PCR to determine the level of NANOG and PAX6 expression.
For general differentiation experiments cells were passaged with trypsin onto matrigel coated twelve-well dishes in the fully supportive media (see above). The media was then changed to defined media 24 h later and any experimental component was first added at this point. The media and experimental supplement were changed daily.
Cells were routinely harvested for qRT-PCR analysis 14 days after the first addition of the experimental compound.
Total RNA was extracted using QIAGEN RNeasy kits (Qiagen Inc, Valencia, Calif., http://www.qiagen.com) and DNaseI treatment was performed using Turbo DNA-Free (Ambion). The absence of genomic DNA was confirmed by quantitative PCR (qPCR) (see below) using glyceraldehyde-3-phosphate dehydrogenase (GAPDH) Taqman primers and probe (MWG). cDNA was synthesized with 2 μg total RNA in 20 μl using Superscript II according to manufacturers' instructions ((Carlsbad, Calif., http://www.Invitrogen.com)). For qPCR, cDNAs were diluted 1 in 60 and 5 μl used per sample in a 15 μl total reaction volume. Platinum pPCR supermix UDG with Rox (Carlsbad, Calif., http://www.Invitrogen.com) was used according to the manufacturer's instructions using an Applied Biosystems 7300 real time PCR system (Applied Biosystems, Warrington, UK, http://europe.appliedbiosystems.com). Each reaction contained 0.6 μM of each primer and Taqman probe (MWG). Biological and technical replicates were each performed in triplicate for each sample, standardised to the GAPDH housekeeping gene and relative expression values were calculated using the 7300 system SDS software (Applied Biosystems, Warrington, UK, http://europe.appliedbiosystems.com).
Cells were enzymatically passaged onto matrigel-coated dishes and grown for 2 weeks in defined media. After 14 days, qRT-PCR was utilised to analyse the expression of a variety of markers of pluripotency and differentiation. In the graphs in FIG. 9 the value 1 was set to the expression level of the gene in undifferentiated SA121 hESCs.
Cells were enzymatically passaged onto matrigel-coated dishes and grown for 2 weeks in defined media (1× confluent T25 tissue culture flask was passaged to 2×12 well dishes) with or without (control) compound addition. All compounds were added at 10 uM and each was performed in triplicate. Media and compounds were changed every 48 hours. After 14 days RNA was isolated and qRT-PCR was utilised to analyse the expression of NANOG and PAX6. The results are illustrated in FIGS. 13 to 17.
In the graphs in FIGS. 13, 14 15, 16 and 17 the value 1 was set relative to the expression level of the gene in the control (no compound) samples. […] This experiment allowed the effect of the EHNA-related compounds to be measured directly in comparison to EHNA. […] Those which had on effect, to these levels, on either PAX6 or NANOG were considered to have a partial-EHNA effect.
For orientation: Quantitative PCR measures a nucleic acid by following its amplification.

Turning to `CCCCCCCCCn1cc2c(N)ncnc2n1.Cl` [HWC30, 2-nonyl-2H-pyrazolo[3,4-d]pyrimidin-4-amine hydrochloride], the “Full EHNA effect” value (10 uM, 14 days, qRT-PCR) is “X”.
For `CCCCCCC(C(C)O)n1cnc2c(O)ncnc21.Cl` (stereo not drawn) [HWC14, erythro-9-(2-hydroxynonan-3-yl)-9H-purin-6-ol hydrochloride], for the setting “10 uM, 14 days, qRT-PCR”, the “NO EHNA EFFECT” value is “X”.
As to `CCCCCCC(C(C)O)n1cnc2c(SC)ncnc21` (stereo not drawn) [HWC25, erythro-3-[6-(methylthio)-9H-purin-9-yl]nonan-2-ol], the “Full EHNA effect” value (10 uM, 14 days, qRT-PCR) was “X”.
`CCCCCC[C@H]([C@H](C)O)n1cnc2c(N)ncnc21` [HWC46, (2S,3R)-3-(6-amino-9H-purin-9-yl)nonan-2-ol]: the “Full EHNA effect” value (10 uM, 14 days, qRT-PCR) is reported as “X”.
Turning to `COc1ncnc2c1ncn2[C@H](CCc1ccccc1)[C@H](C)O.Cl` [HWC45, (2S,3R)-3-(6-methoxy-9H-purin-9-yl)-5-phenylpentan-2-ol hydrochloride], the “NO EHNA EFFECT” value (10 uM, 14 days, qRT-PCR) is recorded as “X”.
For `CCCCC[C@H]([C@H](C)O)n1cnc2c(N)ncnc21` [HWC59, (2S,3R)-3-(6-amino-9H-purin-9-yl)octan-2-ol], the “NO EHNA EFFECT” value (10 uM, 14 days, qRT-PCR) is reported as “X”.
Take `CCCCCC[C@@H]([C@@H](C)O)n1cnc2c(N)ncnc21` [HWC52, (2R,3S)-3-(6-amino-9H-purin-9-yl)nonan-2-ol]: the “PARTIAL EHNA EFFECT (PAX6)” value (10 uM, 14 days, qRT-PCR) was “X (Those which had on effect, to these levels, on either PAX6 or NANOG were considered to have a partial-EHNA effect)”.
For `CC(C)Cn1c(=O)n(C)c(=O)c2[nH]cnc21` [IBMX, 3-Isobutyl-1-methylxanthine, reference compound], under “qRT-PCR, 14 days”, the “PAX6 expression in differentiating conditions” value is given as “nor did they inhibit PAX6 induction”. Also, the “stem cell marker expression (NANOG, ZFP42, POU5F1) in differentiating conditions” value (qRT-PCR, 14 days, FIG. 9a) is given as “Neither BAY nor IBMX maintained stem cell marker expression”.
Take `COCCOCCn1ncc2c(N)ncnc21` [HWC34, 1-[2-(2-methoxyethoxy)ethyl]-1H-pyrazolo[3,4-d]pyrimidin-4-amine]: the “PARTIAL EHNA EFFECT (PAX6)” value (10 uM, 14 days, qRT-PCR) is on record as “X (Those which had on effect, to these levels, on either PAX6 or NANOG were considered to have a partial-EHNA effect)”.
In the case of `CCC[C@H](O)[C@@H](C)n1cnc2c(N)ncnc21` [HWC61, (2R,3S)-2-(6-amino-9H-purin-9-yl)hexan-3-ol], the “NO EHNA EFFECT” value (10 uM, 14 days, qRT-PCR) is “X”.
For `CCC[C@H]([C@H](C)O)n1cnc2c(N)ncnc21` [HWC60, (2S,3R)-3-(6-Amino-9H-purin-9-yl)hexan-2-ol], the “NO EHNA EFFECT” value (10 uM, 14 days, qRT-PCR) is “X”.
Regarding `CCCCCCC(C(C)O)n1cnc2cccnc21.Cl` (stereo not drawn) [HWC-5, 3-(3H-imidazo[4,5-b]pyridin-3-yl)nonan-2-ol hydrochloride], the “prevention of differentiation of hESCs” value is on record as “can prevent differentiation of hESCs”. Where the note is “qRT-PCR, 14 days”, the “PAX6 expression in differentiating conditions” value is listed as “inhibiting PAX6 expression” and the “NANOG expression in differentiating conditions” value was “capable of maintaining NANOG”.
Regarding `CCCCCCCCn1ncc2c(N)ncnc21.Cl` [HWC40, 1-octyl-1H-pyrazolo[3,4-d]pyrimidin-4-amine hydrochloride], the “Full EHNA effect” value (10 uM, 14 days, qRT-PCR) is reported as “X”.
Take `CCCCCC[C@@H]([C@@H](C)O)n1cnc2cnccc21` [HWC8, erythro-3-(1H-imidazo[4,5-c]pyridin-1-yl)nonan-2-ol]: the “PARTIAL EHNA EFFECT (PAX6)” value (10 uM, 14 days, qRT-PCR) is recorded as “X (Those which had on effect, to these levels, on either PAX6 or NANOG were considered to have a partial-EHNA effect)”.
As for `CCCCCC[C@@H]([C@@H](C)O)n1nnc2c(N)ncnc21` [HWC26, erythro-3-(7-amino-3H-[1,2,3]triazolo[4,5-d]pyrimidin-3-yl)nonan-2-ol], where the note is “10 uM, 14 days, qRT-PCR”, the “PARTIAL EHNA EFFECT (PAX6)” value is “X (Those which had on effect, to these levels, on either PAX6 or NANOG were considered to have a partial-EHNA effect)”.
With `CCCCCC[C@H]([C@H](C)O)n1cnc2c(OC)ncnc21` [HWC47, (2S,3R)-3-(6-methoxy-9H-purin-9-yl)nonan-2-ol], the “NO EHNA EFFECT” value (10 uM, 14 days, qRT-PCR) is listed as “X”.
For `CCCCCC[C@@H]([C@@H](C)O)n1cnc2cncnc21` [HWC12, erythro-3-(9H-purin-9-yl)nonan-2-ol], where the note is “10 uM, 14 days, qRT-PCR”, the “PARTIAL EHNA EFFECT (PAX6)” value is listed as “X (Those which had on effect, to these levels, on either PAX6 or NANOG were considered to have a partial-EHNA effect)”.
On the same count and under the same terms, the result for `CCCCCC[C@H](O)[C@@H](C)n1cnc2c(N)ncnc21` [HWC48, (2R,3S)-2-(6-amino-9H-purin-9-yl)nonan-3-ol] reads “X (Those which had on effect, to these levels, on either PAX6 or NANOG were considered to have a partial-EHNA effect)”.
Regarding `CCCCCCCCn1cc2c(N)ncnc2n1.Cl` [HWC41, 2-octyl-2H-pyrazolo[3,4-d]pyrimidin-4-amine hydrochloride], under “10 uM, 14 days, qRT-PCR”, the “Full EHNA effect” value was “X”.
Take `CCCCCCC(CC)n1cnc2c(N)ncnc21` (racemic) [HWC57, (rac)-9-(Nonan-3-yl)-9H-purin-6-amine]: the “Full EHNA effect” value (10 uM, 14 days, qRT-PCR) was “X”.
Regarding `CCCCCCCCCCn1cc2c(N)ncnc2n1.Cl` [HWC6, 2-decyl-2H-pyrazolo[3,4-d]pyrimidin-4-amine hydrochloride], the “prevention of differentiation of hESCs” value was “can prevent differentiation of hESCs”. In addition, the “Full EHNA effect” value (10 uM, 14 days, qRT-PCR) is “X”. Also, where the note is “qRT-PCR, 14 days”, the “PAX6 expression in differentiating conditions” value is given as “inhibiting PAX6 expression” and the “NANOG expression in differentiating conditions” value is on record as “capable of maintaining NANOG”.
With `CCCCCC[C@@H](O)[C@H](C)n1cnc2c(N)ncnc21` [HWC50, (2S,3R)-2-(6-amino-9H-purin-9-yl)nonan-3-ol], where the note is “10 uM, 14 days, qRT-PCR”, the “PARTIAL EHNA EFFECT (PAX6)” value is given as “X (Those which had on effect, to these levels, on either PAX6 or NANOG were considered to have a partial-EHNA effect)”.
Regarding `C[C@H](O)[C@@H](CCc1ccccc1)n1cnc2c(N)ncnc21.Cl` [HWC44, (2S,3R)-3-(6-amino-9H-purin-9-yl)-5-phenylpentan-2-ol hydrochloride], the “NO EHNA EFFECT” value (10 uM, 14 days, qRT-PCR) is “X”.
Regarding `Nc1ncnc2nn(CCN3CCOCC3)cc12` [HWC29, 2-(2-morpholinoethyl)-2H-pyrazolo[3,4-d]pyrimidin-4-amine], where the note is “10 uM, 14 days, qRT-PCR”, the “PARTIAL EHNA EFFECT (PAX6)” value is given as “X (Those which had on effect, to these levels, on either PAX6 or NANOG were considered to have a partial-EHNA effect)”.
In the case of `C[C@H]([C@@H](O)CCc1ccccc1)n1cnc2c(N)ncnc21.Cl` [HWC42, (3S,4R)-4-(6-amino-9H-purin-9-yl)-1-phenylpentan-3-ol hydrochloride], the “PARTIAL EHNA EFFECT (PAX6)” value (10 uM, 14 days, qRT-PCR) is “X (Those which had on effect, to these levels, on either PAX6 or NANOG were considered to have a partial-EHNA effect)”.
Take `CCCCCCC(C(C)O)n1cnc2c(S)ncnc21.Cl` (stereo not drawn) [HWC13, erythro-3-(6-mercapto-9H-purin-9-yl)nonan-2-ol hydrochloride]: the “PARTIAL EHNA EFFECT (PAX6)” value (10 uM, 14 days, qRT-PCR) was “X (Those which had on effect, to these levels, on either PAX6 or NANOG were considered to have a partial-EHNA effect)”.
As to `CCCCCC[C@@H]([C@@H](C)O)n1cnc(C(=O)NC)c1` [HWC7, erythro-1-(2-hydroxynonan-3-yl)-N-methyl-1H-imidazole-4-carboxamide], for the setting “10 uM, 14 days, qRT-PCR”, the “NO EHNA EFFECT” value is listed as “X”.
In the case of `CCCCC[C@H](O)[C@@H](C)n1cnc2c(N)ncnc21` [HWC58, (2R,3S)-2-(6-amino-9H-purin-9-yl)octan-3-ol], the “PARTIAL EHNA EFFECT (NANOG)” value (10 uM, 14 days, qRT-PCR, only NANOG at least 50% of EHNA level) was “X (Those which had on effect, to these levels, on either PAX6 or NANOG were considered to have a partial-EHNA effect)”.
Regarding `Nc1ncnc2c1cnn2CCN1CCOCC1` [HWC28, 1-(2-morpholinoethyl)-1H-pyrazolo[3,4-d]pyrimidin-4-amine], the “PARTIAL EHNA EFFECT (PAX6)” value (10 uM, 14 days, qRT-PCR) is “X (Those which had on effect, to these levels, on either PAX6 or NANOG were considered to have a partial-EHNA effect)”.
As to `COCCOCCn1cc2c(N)ncnc2n1` [HWC35, 2-[2-(2-methoxyethoxy)ethyl]-2H-pyrazolo[3,4-d]pyrimidin-4-amine], the “PARTIAL EHNA EFFECT (PAX6)” value (10 uM, 14 days, qRT-PCR) was “X (Those which had on effect, to these levels, on either PAX6 or NANOG were considered to have a partial-EHNA effect)”.
